Earlier results in US20250255825A1, “POLYMER-LIPID NANOCOMPLEX FOR ENHANCED AQUEOUS SOLUBILISATION AND ABSORPTION OF HYDROPHOBIC ACTIVE COMPOUNDS” (priority 2019, published 2025).
Like-named read-outs stand apart in the source and are kept apart here.

Columns and labels:
[1] = partition coefficient octanol/water
[2] = system: malaria parasitaemia in the blood; conditions: reported value for un-formulated LUM
[3] = not given; remark: listed apart in the source

Compound	Log P [1]	half-life (T½) (in vivo) [h]	highest concentration (Cmax) in the blood (orally administered) [ng/mL]	time to reach the highest concentration (Tmax) (orally administered)	effective dose (ED90) to clear 90% of parasitaemia in the blood [2] [mg/kg]	protein bound (plasma proteins) [%]	bioavailability ([3]; inhalation)	bioavailability ([3]; orally)
CCCCN(CCCC)CC(O)c1cc(Cl)cc2c1-c1ccc(Cl)cc1/C2=C/c1ccc(Cl)cc1 (racemic) [Lumefantrine]	9	96 to 120	7000	about 6 hours	12.01	99.7		
C=C(C)[C@@H]1CCC(C)=C[C@H]1c1c(O)cc(CCCCC)cc1O [Cannabidiol]							11-45%	13-19%
